Source: patent publication EP1458697B1, “BIPHENYLMETHYL-THIAZOLIDINEDIONES AND ANALOGUES AND THEIR USE AS PPAR-GAMMA ACTIVATORS” (Galderma Research & Development, S.N.C., priority 2001, dated 2003)

Tests used:
[1] = target: T1, récepteur chimère Gal-PPARα (Homo sapiens, UniProt Q07869); test: Transactivation test, same protocol with chimeric receptor Gal-PPARα; type: cell-based; settings: Hela cells; for activation at 1 µM: 24 h, compound at 1 microM, percent of activation relative to reference agonist (Wy 14643 = 100%), read-out: % d'activation (à 1 microM) PPARα; for AC50: concentration giving 50% activation relative to reference agonist, read-out: AC50 (en nM) PPARα
T1 sequence (Q07869 167-468): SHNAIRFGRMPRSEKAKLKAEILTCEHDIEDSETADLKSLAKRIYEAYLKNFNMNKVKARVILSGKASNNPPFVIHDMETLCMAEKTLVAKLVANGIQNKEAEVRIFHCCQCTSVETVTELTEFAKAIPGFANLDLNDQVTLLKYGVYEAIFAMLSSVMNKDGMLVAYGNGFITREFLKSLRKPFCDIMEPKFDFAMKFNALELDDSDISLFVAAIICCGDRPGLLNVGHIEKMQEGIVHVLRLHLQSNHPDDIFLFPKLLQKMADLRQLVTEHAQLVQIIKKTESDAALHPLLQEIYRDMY
Excerpt: De préférence, l'activateur des récepteurs de type PPARγ est spécifique, c'est à dire qu'il présente un rapport du pourcentage d'activation des récepteurs PPARγ, au pourcentage d'activation des récepteurs PPARα (calculé par rapport à un composé de référence, le Wy 14643, activant les PPARα de 100%) supérieur ou égal à 3. De préférence, ce rapport est supérieur ou égal à 5 et plus avantageusement supérieur ou égal à 10.
(§1) La capacité des molécules à activer et/ou inhiber les récepteurs PPARγ est évaluée à partir de cellules Hela transfectées de manière stable avec le récepteur chimère Gal-PPARγ (LBD).
(§2) Des plaques 96 puits sont ensemencées à raison de 10 000 cellules /100 µl / puit dans du milieu DMEM 10% SDL puis placées 24 heures à 37°C, 7% CO2.
(§3) Pour déterminer l'activité agoniste PPARγ, les cellules sont ensuite traitées par ajout de 5 µl puit des molécules à tester à la concentration finale de 1 µM. Des cellules sont également traitées en parallèle avec un agoniste de référence, l'acide (-)-3-{4-[2-(Benzooxazol-2-yl-methyl-amino)-ethoxy]-phenyl}-2-ethoxy-propionique, 1 µM.
(§4) Après une nouvelle incubation de 24 heures à 37°C, 7% CO2, un dosage de la luciférase est effectué à l'aide du kit « Steady-Glo Luciferase Assay System » de Promega. Le comptage de la luminescence se fait sur un lecteur de microplaque Microbéta Trilux (Wallac).
(§5) L'activité agoniste du produit testé sera exprimée en pourcentage d'activation par rapport au témoin agoniste l'agoniste de référence à 1 µM.
En appliquant ce même protocole avec le récepteur chimère Gal-PPARα, on peut mesurer l'activité agoniste des composés vis à vis des récepteurs PPAR alpha et ainsi la comparer avec celui du récepteur PPARγ.
(§6) L'AC50, exprimée en nM, est déterminée comme la concentration permettant d'obtenir 50% d'activation du signal basal par rapport à l'agoniste de référence.

[2] = target: T2, récepteur chimère Gal-PPARγ (LBD) (Homo sapiens, UniProt P37231); test: Transactivation test, Hela cells stably transfected with chimeric receptor Gal-PPARγ (LBD), luciferase readout; type: cell-based; settings: M-HeLa, 24 h, compound at 1 microM, percent of activation relative to reference agonist at 1 µM, read-out: % d'activation (à 1 microM) PPARγ
T2 construct: le récepteur chimère Gal-PPARγ (LBD); Gal (fusion partner); expressed in transfected cells; host or cells: HeLa cells, stably transfected
T2 sequence (P37231 238-503 limits assumed): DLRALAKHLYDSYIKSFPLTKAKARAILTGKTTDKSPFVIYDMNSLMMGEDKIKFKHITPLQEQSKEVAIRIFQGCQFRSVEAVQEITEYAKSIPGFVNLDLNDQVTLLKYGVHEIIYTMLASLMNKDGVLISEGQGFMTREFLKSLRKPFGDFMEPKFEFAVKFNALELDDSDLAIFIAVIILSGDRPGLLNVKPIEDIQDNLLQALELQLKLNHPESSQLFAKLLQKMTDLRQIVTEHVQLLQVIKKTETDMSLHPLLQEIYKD
Protocol: L'activité agoniste vis à vis des récepteurs PPARγ des composés selon l'invention peut être évaluée par des tests de transactivation.
as §1, §2, §3, §4, §5, §6

Row | Compound | activation at 1 µM [1] [%] | activation at 1 µM [2] [%] | AC50 [1] [nM]
1 | CN(Cc1cccc(-c2ccc(CC3SC(=O)NC3=O)cc2)c1)C(=O)COc1ccccc1 (stereo not shown) [Composé de l'exemple 7, N-[4'-(2,4-Dioxo-thiazolidin-5-ylmethyl)-biphenyl-3-ylmethyl]-N-methyl-2-phenoxy-acetamide] | 37.8 | 97.2 | 
2 | COC(=O)CCCCCCCCC(=O)N(C)Cc1cccc(-c2ccc(CC3SC(=O)NC3=O)cc2)c1 (stereo not shown) [Composé de l'exemple 2, 9-{[4'-(2,4-Dioxo-thiazolidin-5-ylmethyl)-biphenyl-3-ylmethyl]-methyl-carbamoyl}-nonanoatede méthyle] | 13.7 |  | 
3 | COC(=O)c1ccc(C(=O)N(C)Cc2cccc(-c3ccc(CC4SC(=O)NC4=O)cc3)c2)cc1 (stereo not shown) [Composé de l'exemple 3, N-[4'-(2,4-Dioxo-thiazolidin-5-ylmethyl)-biphenyl-3-ylmethyl]-N-methyl-terephthalamatede méthyle] | 22.3 |  | > 50000
4 | CCO[C@@H](Cc1ccc(-c2cccc(CN(C)C(=O)c3ccc4cc(OCOCCOC)ccc4c3)c2)cc1)C(=O)O [Composé de l'exemple 23, Acide (S)-2-Ethoxy-3-{3'-[({1-[6-(2-methoxy-ethoxymethoxy)-naphthalen-2-yl]-methanoyl}-methyl-amino)-methyl]-biphenyl-4-yl}-propionique] | 11.9 | 90 | 
5 | CN(C(=O)Nc1ccc2ccccc2c1)c1cccc(-c2ccc(CC3SC(=O)NC3=O)cc2)c1 (stereo not shown) [Composé de l'exemple 21, 1-[4'-(2,4-Dioxo-thiazolidin-5-ylmethyl)-biphenyl-3-yl]-1-methyl-3-naphthalen-2-yl-urée] | -4.2 | 104 | 
6 | CN(Cc1cccc(-c2ccc(CC3SC(=O)NC3=O)cc2)c1)C(=O)CCC1CCCC1 (stereo not shown) [Composé de l'exemple 4, 3-Cyclopentyl-N-[4'-(2,4-dioxo-thiazolidin-5-ylmethyl)-biphenyl-3-ylmethyl]-N-methyl-propionamide] | 39.8 |  | > 50000
7 | CN(Cc1cccc(-c2ccc(CC3SC(=O)NC3=O)cc2)c1)C(=O)c1cc2ccccc2s1 (stereo not shown) [Composé de l'exemple 11, N-[4'-(2,4-dioxo-thiazolidin-5-ylmethyl)-biphenyl-3-ylmethyl]-N-methyl-benzo[b]thiophene-2-carboxamide] | 13.2 | 90.1 | > 50000
8 | CN(Cc1cccc(-c2ccc(CC3SC(=O)NC3=O)cc2)c1)C(=O)C12CC3CC(CC(C3)C1)C2 (stereo not shown) [Composé de l'exemple 9, N-[4'-(2,4-dioxo-thiazolidin-5-ylmethyl)-biphenyl-3-ylmethyl]-N-methyl-adamantane-1-carboxamide] | 4.3 | 106 | 

More lines, now with the values ahead:

Row | activation at 1 µM [1] [%] | activation at 1 µM [2] [%] | AC50 [1] [nM] | Compound
9 | 19 | 76.7 |  | CN(Cc1cccc(-c2ccc(CC3SC(=O)NC3=O)cc2)c1)C(=O)c1ccc(S(C)(=O)=O)cc1 (stereo not shown) [Composé de l'exemple 14, N-[4'-(2,4-Dioxo-thiazolidin-5-ylmethyl)-biphenyl-3-ylmethyl]-4-methanesulfonyl-N-methyl-benzamide]
10 | 13.8 | 183 | > 50000 | CN(Cc1cccc(-c2ccc(CC3SC(=O)NC3=O)cc2)c1)C(=O)c1ccc(-c2ccccc2)cc1 (stereo not shown) [Composé de l'exemple 10, N-[4'-(2,4-dioxo-thiazolidin-5-ylmethyl)-biphenyl-3-ylmethyl]-N-methyl-biphenyl-4-carboxamide]
11 | 26.6 |  | > 50000 | CN(Cc1cccc(-c2ccc(CC3SC(=O)NC3=O)cc2)c1)C(=O)c1cccc2ccccc12 (stereo not shown) [Composé de l'exemple 5, N-[4'-(2,4-dioxo-thiazolidin-5-ylmethyl)-biphenyl-3-ylmethyl]-N-methyl-naphthalene-1-carboxamide]
12 | 7.9 |  | > 50000 | CN(Cc1cccc(-c2ccc(CC3SC(=O)NC3=O)cc2)c1)C(=O)c1ccc2ccccc2c1 (stereo not shown) [Composé de l'exemple 6, N-[4'-(2,4-dioxo-thiazolidin-5-ylmethyl)-biphenyl-3-ylmethyl]-N-methyl-naphthalene-2-carboxamide]
